Experimental data as given in ChEMBL document CHEMBL1136060, “A new class of type I protein geranylgeranyltransferase (GGTase I) inhibitor” (Bioorg Med Chem Lett, 2002).
Where “and” joins values, the source holds several entries; their conditions need not be identical. Equal values may be shown once.

Tests used:
[1] = system: Geranylgeranyl transferase type I (Candida albicans); experiment: Tested for the inhibition of Candida GGTase I in Candida albicans at concentration of 3 uM
[2] = target: Geranylgeranyl transferase type I (Candida albicans); experiment: Tested for the inhibition of Candida GGTase I in Candida albicans
[3] = target: Geranylgeranyl transferase type I (Candida albicans); experiment: Inhibition of Candida geranylgeranyl transferase I […]
[4] = target: T1, Geranylgeranyl transferase type I (Homo sapiens, UniProt P49354+P53609); experiment: Tested for the selectivity against human geranylgeranyl transferase I; assay type: protein-complex assay
Candida albicans = experiment: Antifungal activity against Candida albicans; assay type: functional
[5] = target: Protein farnesyltransferase (Homo sapiens, UniProt P49354+P49356); experiment: Inhibition of human farnesyl transferase; assay type: protein-complex assay
[6] = target: T1, Geranylgeranyl transferase type I; experiment: Inhibition of human geranylgeranyl transferase I; assay type: protein-complex assay
[7] = target: Geranylgeranyl transferase type I (Candida albicans); experiment: Inhibition of Candida geranylgeranyl transferase I

| inhibition [1] | Compound | also measured |
| --- | --- | --- |
| < 10% | CC(O)C(NC(=O)C1Cc2ccccc2C1)C(=O)OCCCS (configuration not stated) |  |
| 55% | O=C(OCCCS)C(Cc1ccccc1)NC(=O)C1COc2ccccc2O1 (configuration not stated) |  |
| < 10% | CC(O)C(NC(=O)C1COc2ccccc2O1)C(=O)OCCCS (configuration not stated) |  |
| 89% | O=C(NC(C(=O)OCCCS)c1cccc2ccccc12)C1COc2ccccc2O1 (configuration not stated) |  |
| < 10% | O=C(O)CCC(NC(=O)C1COc2ccccc2O1)C(=O)OCCCS (configuration not stated) |  |
| 72% | O=C(OCCCS)C(Cc1c[nH]c2ccccc12)NC(=O)C1COc2ccccc2O1 (configuration not stated) |  |
| < 10% | O=C(OCCCS)C(CC1CCCCC1)NC(=O)C1COc2ccccc2O1 (configuration not stated) |  |
| < 10% | O=C(CNC(=O)C1COc2ccccc2O1)OCCCS (configuration not stated) |  |
| < 10% | O=C(CNC(=O)C1Cc2ccccc2C1)OCCCS |  |
| 25% | O=C(OCCCS)C(Cc1ccc2ccccc2c1)NC(=O)C1COc2ccccc2O1 (configuration not stated) |  |

The next lines start with the compound.

| Compound | inhibition [1] | also measured |
| --- | --- | --- |
| O=C(N[C@H](Cc1cccc2ccccc12)C(=O)OCCCS)C1Cc2ccccc2C1 |  | IC50 [2]: 0.0073 µM |
| O=C(OCC(O)CS)c1csc(C2COc3ccccc3O2)n1 (configuration not stated) |  | IC50 [2]: 0.031 µM |
| O=C(NC(Cc1c[nH]c2ccccc12)C(=O)OCCCS)C1Cc2ccccc2C1 (configuration not stated) | 72% |  |
| O=C(OCCCS)c1csc(C2COc3ccccc3O2)n1 (configuration not stated) |  | IC50 [3]: 0.24 µM |
| O=C(N[C@H](Cc1cccc2ccccc12)C(=O)NCCc1cnc[nH]1)C1Cc2ccccc2C1 |  | IC50 [2]: 0.35 µM |
| NC(=O)[C@@H](Cc1c[nH]cn1)NC(=O)[C@@H](Cc1cccc2ccccc12)NC(=O)C1c2ccccc2-c2ccccc21 | 71% and 96% |  |
| O=C(N[C@H](Cc1ccc(Cl)c(Cl)c1)C(=O)NCCc1c[nH]cn1)C1c2ccccc2Oc2ccccc21 |  | Selectivity [4]: > 1000; IC50 [2]: 0.01 µM |
| O=C(NC(Cc1ccccc1)C(=O)OCCCS)C1Cc2ccccc2C1 (configuration not stated) | 63% |  |
| O=C(NC(CC1CCCCC1)C(=O)OCCCS)C1Cc2ccccc2C1 (configuration not stated) | < 10% |  |
| NC(=O)[C@@H](Cc1c[nH]cn1)NC(=O)[C@@H](Cc1cccc2ccccc12)NC(=O)C1Cc2ccccc2C1 | 48% |  |
| O=C(NCCCS)c1csc(C2COc3ccccc3O2)n1 (configuration not stated) |  | IC50 [2]: 0.78 µM |
| O=C(NC(Cc1ccc2ccccc2c1)C(=O)OCCCS)C1Cc2ccccc2C1 (configuration not stated) | 36% |  |
| O=C(O)CCC(NC(=O)C1Cc2ccccc2C1)C(=O)OCCCS (configuration not stated) | < 10% |  |
| O=C(NC(C(=O)OCCCS)c1cccc2ccccc12)C1Cc2ccccc2C1 (configuration not stated) | 90% |  |
| O=C(OCCS)c1csc(C2COc3ccccc3O2)n1 (configuration not stated) |  | IC50 [3]: 1.3 µM |
| NC(=O)[C@@H](Cc1c[nH]cn1)NC(=O)[C@@H](Cc1cccc2ccccc12)NC(=O)C1c2ccccc2Oc2ccccc21 | 97% |  |
| O=C(OC(CS)C(O)CS)c1csc(C2COc3ccccc3O2)n1 (configuration not stated) |  | MIC (Candida albicans): > 120 µg/mL; IC50 [5]: > 1000 µM; IC50 [6]: 40 µM; IC50 [7]: 0.017 µM; IC50 [3]: 0.017 µM |
